Results published in patent publication US4228167A, “Diuretic and vasodilating tricyclic quinazolines” (Sumitomo Chemical Company, Limited, priority 1977, dated 1980).
In brackets after ≈: the same amount, converted by molar mass. Where two headings read alike, the source gives them in different places.

Legend:
[1] = Diuretic activity (urinary excretion) in rats; type: in vivo; conditions: standard dose of 10 mg/kg; for Urinary excretion K^30: potassium, control 0.53; for Urinary excretion Na^+ /K^ +: ratio, control 2.9; for Urinary excretion Na^30: sodium, control 1.5; for Urinary excretion: urine volume, control 9.5
Protocol: Diuretic activity was evaluated according to the method described by W. L. Lipschits et al., J. Pharmacol. Exp. Ther., 79, 97 (1943). The results in rats are shown in Table I, where the data for a standard dose of 10 mg/kg is listed for the purpose of comparison.

rat aortic strips = assay: Vasodilating activity: relaxation of isolated rat aortic strips contracted with potassium chloride; conditions: read-out: Median effective concentration (ED50)
Protocol: Vasodilating activity was examined by use of the method described by N. Tada et al., J. Pharmacol. Exp. Ther., 191, 139 (1974). The rat aortic strips were isolated and contracted using 30 mM of potassium chloride. Dose dependent relaxation in the aortic strips was observed by adding the test compounds. At the end of each experiment, papaverine in a concentration of 3×10^-5 g/ml was added and the relaxation induced was taken as 100%. Median effective concentration (ED50) was obtained from dose response curves.

[2] = rat aortic strips contracted with 30 mM potassium chloride, relaxation by papaverine 3×10^-5 g/ml taken as 100%

SMILES	Urinary excretion K^30 [1] [mequiv/kg]	Urinary excretion Na^+ /K^ + [1]	Urinary excretion Na^30 [1] [mequiv/kg]	Urinary excretion [1] [mL/kg]	EC50 (rat aortic strips; [2]) [µg/mL]	EC50 (rat aortic strips; Rattus norvegicus) [µg/mL]
CCCCN1C2=NCCN2C(c2ccccc2)c2cc(Cl)ccc21 (stereo not shown) [7-Cl, H, H, n-Bu, H, CH2 CH2, 7-chloro-10-(n-butyl)-5-phenyl-2,3,5,10-tetrahydroimidazo[2,1-b]quinazoline]	0.86	5.3	4.5	31.1	–	–
COc1ccc2c(c1)C(c1ccccc1)N1CCN=C1N2CC1CC1 (stereo not shown) [7-MeO, H, H, [drawing 6], H, CH2 CH2, 10-Cyclopropylmethyl-7-methoxy-5-phenyl-2,3,5,10-tetrahydroimidazo[2,1-b]quinazoline]	–	–	–	–	1 (≈ 3 µM)	–
CN1C2=NCCCN2C(c2ccccc2)c2cc(Cl)ccc21 (stereo not shown) [8-Cl, H, H, Me, H, CH2 CH2 CH2, 8-chloro-11-methyl-6-phenyl-3,4,6,11-tetrahydro-2H-pyrimido[2,1-b]quinazoline]	0.97	5.6	5.6	38.3	–	–
Clc1ccc2c(c1)N(CC1CC1)C1=NCCN1C2c1ccccc1 (stereo not shown) [8-Cl, H, H, [drawing 3], H, CH2 CH2, 8-Chloro-10-cyclopropylmethyl-5-phenyl-2,3,5,10-tetrahydroimidazo[2,1-b]quinazoline]	0.92	4.0	3.7	26.8	0.24 (≈ 0.71 µM)	–
CCCCN1C2=NCCCN2C(c2ccccc2)c2cc(Cl)ccc21 (stereo not shown) [8-Cl, H, H, n-Bu, H, CH2 CH2 CH2, 8-Chloro-11-(n-butyl)-6-phenyl-3,4,6,11-tetrahydro-2H-pyrimido[2,1-b]quinazoline]	–	–	–	–	0.27 (≈ 0.763 µM)	–
Clc1ccc2c(c1)N(CC1CC1)C1=NCCCN1C2c1ccccc1 (stereo not shown) [9-Cl, H, H, [drawing 4], H, CH2 CH2 CH2, 9-Chloro-11-cyclopropylmethyl-6-phenyl-3,4,6,11-tetrahydro-2H-pyrimido[2,1-b]quinazoline]	0.78	6.1	4.7	34.3	0.29 (≈ 0.824 µM)	–
CN1C2=NCCN2C(O)(c2ccc(Cl)cc2)c2ccccc21 (stereo not shown) [H, H, p-Cl, Me, OH, CH2 CH2, 5-(p-chlorophenyl)-5-hydroxy-10-methyl-2,3,5,10-tetrahydroimidazo[2,1-b]quinazoline]	0.84	5.2	4.4	32.6	–	–
COc1ccc(Cc2nccc3cc(OC)c(OC)cc23)cc1OC [Papaverine, reference compound]	–	–	–	–	–	4.6 (≈ 13.6 µM)
